According to PubChem BioAssay (NCI):
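1) Cells in 96-well plates. 2) Compound, 48 h, 5 concentrations. 3) Linear interpolation between surrounding doses. 4) Unreached endpoint = highest concentration. TGI is the concentration that stops growth completely.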

Assays:
Assay in all cases: NCI tumour cell line growth inhibition, 48 h
MALME-3M melanoma = system: MALME-3M melanoma
OVCAR-3 ovarian = system: OVCAR-3 ovarian
NCI-H226 lung = system: NCI-H226 lung
SK-MEL-2 melanoma = system: SK-MEL-2 melanoma
COLO 205 colon = system: COLO 205 colon
NCI-H460 lung = system: NCI-H460 lung
SW-620 colon = system: SW-620 colon
BT-549 breast = system: BT-549 breast
OVCAR-5 ovarian = system: OVCAR-5 ovarian
T-47D breast = system: T-47D breast
HL-60(TB) leukemia = system: HL-60(TB) leukemia
SR leukemia = system: SR leukemia
SK-MEL-28 melanoma = system: SK-MEL-28 melanoma

| Compound | TGI (MALME-3M melanoma) [µM] | TGI (OVCAR-3 ovarian) [µM] | TGI (NCI-H226 lung) [µM] | TGI (SK-MEL-2 melanoma) [µM] | TGI (COLO 205 colon) [µM] | TGI (NCI-H460 lung) [µM] | TGI (SW-620 colon) [µM] | TGI (BT-549 breast) [µM] | TGI (OVCAR-5 ovarian) [µM] | TGI (T-47D breast) [µM] | TGI (HL-60(TB) leukemia) [µM] | TGI (SR leukemia) [µM] | TGI (SK-MEL-28 melanoma) [µM] |
| --- | --- | --- | --- | --- | --- | --- | --- | --- | --- | --- | --- | --- | --- |
| Nc1nc(Cl)cc(Nc2cc(Cl)cc(Cl)c2)n1 | 37.8 | 48.6 | 40.8 | 38.1 | 41.4 | 32.1 | 41.1 | 45.4 | 76.7 | 98.9 | – | – | – |
| COC(=O)C1C2C=CC(C2)N1[C@@H](C)c1ccccc1 (some centres undefined) | > 100 | > 100 | – | > 100 | > 100 | > 100 | > 100 | – | > 100 | – | > 100 | > 100 | > 100 |
| CCCCOC(=O)C(O)Cc1ccoc1 (centres undefined) | > 100 | > 100 | > 100 | > 100 | > 100 | > 100 | > 100 | > 100 | > 100 | > 100 | > 100 | – | > 100 |
| CC(=O)NC1=C(C)C(=O)c2c(nc3n2CCC3O)C1=N (centres undefined) | 18.8 | 11.1 | 33.1 | 22 | 33.4 | 51.3 | 26.4 | – | 36.6 | – | > 100 | > 100 | 31 |
| CC1(C)CC(=O)c2c(nc3ccc4ccccc4c3c2-c2ccc(NC(=O)CCC(=O)Nc3ccc(-c4c5c(nc6ccc7ccccc7c46)CC(C)(C)CC5=O)cc3)cc2)C1 | – | > 100 | > 100 | > 100 | > 100 | > 100 | > 100 | – | > 100 | > 100 | > 100 | > 100 | > 100 |
| COc1ccc(CC2NC(=O)/C=C/CC(C(C)C3OC3c3ccccc3)OC(=O)C(CC(C)C)OC(=O)C(C)CNC2=O)cc1Cl (centres undefined) | > 0.1 | 0.000584 | 0.000127 | > 0.1 | 2.12e-05 | 0.00696 | > 0.1 | – | > 0.1 | – | – | – | > 0.1 |
| CN(CCc1ccc(N)cc1)[C@H]1CCCC[C@H]1N1CCCC1 | > 100 | > 100 | > 100 | > 100 | > 100 | > 100 | > 100 | > 100 | > 100 | > 100 | > 100 | – | > 100 |
| CCC(CC)n1c(C)nc2c1C(=O)c1ccccc1C2=O | 73.6 | 75.7 | > 100 | > 100 | > 100 | 49.7 | > 100 | – | – | – | > 100 | > 100 | > 100 |
| COc1ccc2c3c1OC1c4[nH]c5ccccc5c4CC4(O)C(C2)N(C)CCC314 (centres undefined) | – | > 100 | – | 39.5 | 37.7 | 50.3 | > 100 | > 100 | > 100 | 43.6 | – | 37 | 34.5 |
| CC(=O)OC1c2ccccc2CCCCCCC12OCCO2 (centres undefined) | > 100 | > 100 | > 100 | > 100 | > 100 | > 100 | > 100 | – | > 100 | – | > 100 | – | > 100 |
| C(=C\C(SCc1ccccc1)SCc1ccccc1)/c1ccccc1 | > 10 | > 10 | > 10 | > 10 | > 10 | > 10 | > 10 | – | – | > 10 | > 10 | > 10 | > 10 |
| COc1ccc(C(C#N)NNc2nc(C)cc(=O)[nH]2)cc1OC (centres undefined) | > 100 | > 100 | > 100 | > 100 | > 100 | > 100 | > 100 | – | > 100 | – | > 100 | > 100 | > 100 |
| O=c1[nH]nc(Cc2ccccc2)n1Nc1ccccc1 | > 100 | > 100 | > 100 | > 100 | > 100 | > 100 | > 100 | > 100 | > 100 | – | > 100 | > 100 | > 100 |
| CNC(=O)c1[nH]cnc1/N=N/N(C)N | > 100 | > 100 | > 100 | > 100 | > 100 | > 100 | > 100 | > 100 | > 100 | > 100 | – | – | > 100 |
| CC1C[C@]2(C)C(=O)N(c3ccccc3)C(=N)[C@@H]2N(C)c2ccccc21 (some centres undefined) | > 100 | > 100 | > 100 | > 100 | > 100 | > 100 | > 100 | – | > 100 | > 100 | > 100 | > 100 | > 100 |
| Cc1cn(Cc2ccccc2CCl)c(=O)[nH]c1=O | 57 | 12.6 | – | 33.8 | 45.7 | 44.3 | 34.1 | – | 43.4 | 44.8 | 14.8 | – | 45.5 |
| CC(C)C1CC(O)O[C@@H]([C@@H](C)[C@H]2CC(=O)[C@@H]3[C@@H]4[C@@H](O)[C@H](O)[C@H]5[C@@H](O)[C@H](O)CC[C@]5(C)[C@H]4CC[C@]23C)C1 (some centres undefined) | > 100 | > 100 | > 100 | > 100 | > 100 | > 100 | > 100 | – | – | – | > 100 | > 100 | > 100 |
| CCOc1cc(NC(C)=O)ccc1C(=O)NN1C(=O)/C(=C/c2cc(OC)c(OC)c(OC)c2)N=C1c1ccccc1 | > 100 | > 100 | > 100 | – | > 100 | > 100 | > 100 | 69.2 | > 100 | – | > 100 | > 100 | > 100 |
| O=C(CC(C(=O)c1ccoc1)c1ccco1)c1ccco1 (centres undefined) | – | > 100 | > 100 | – | > 100 | > 100 | > 100 | – | > 100 | > 100 | > 100 | > 100 | > 100 |
| CCOC(=O)CCC(NC(=O)c1ccc(N2CCN(c3c(C)nc(N)nc3N)CC2)cc1)C(=O)OCC (centres undefined) | > 100 | > 100 | > 100 | > 100 | > 100 | 96.9 | > 100 | > 100 | > 100 | > 100 | – | – | > 47.4 |
